pIC50: −log10 of the molar value. Read-outs that look alike come from different tables or passages of the source.
Legend:
[1] = test system: MMP-9; experiment: MMP-9 release from PMA-induced THP-1 cells (gelatin zymography); type: cell-based, human; conditions: compound alone at 300 nM
Protocol: Gelatinase activity of MMP-9 was determined by zymography. Proteins in supernatant (after incubation of THP-1 cells with 50 ng PMA for 24 h) were separated on gels containing 0.1% gelatin (Sigma, USA). Gels were re-natured by incubation in 2.5% Triton X-100 for 30 min, incubated overnight in substrate buffer (50 mMTris-HCl, pH 7.5) containing 10 mM CaCl2 and 0.05% ZnCl2 at 37° C. and stained with Coomassie brilliant blue (0.5%). […] Molecular weight markers (Fermentas, Lithuania) were run with each gel. Band intensity was calculated using ImageJ 1.42 (NIH, USA).

[2] = test system: pAkt (S473); experiment: phospho-Akt (S473) in differentiated U937 cells stimulated with cigarette smoke extract (SDS-PAGE); type: cell-based; conditions: Homo sapiens, U-937; compound alone; differentiated U937, CSE; read-out: IC50 of inhibition of Akt phosphorylation
Protocol: U-937 monocytes were differentiated into macrophages by incubation with 50 ng/ml PMA for 48 h. Cells were trypsinized and plated at a density of 100,000 per well and stimulated with CSE for 2 h in starvation media. Lysates were made using RIPA buffer and run by SDS-PAGE, transferred to PVDF membrane and probed with phospho-Akt (S473) antibody (Cell signaling, USA) followed by anti-rabbit IgG (Cell signaling, USA). Band intensity was calculated using ImageJ 1.42 (NIH, USA).

[3] = test system: elastase; experiment: fMLP induced elastase release from human neutrophils; type: cell-based; conditions: compound alone at 300 nM
Protocol: Blood was procured from a local blood bank. Neutrophils were obtained using the dextran sedimentation method. Cells were plated at 100,000 cells per well in a 96-well plate, treated with fMLP (1 μM) and N-Succinyl-Ala-Ala-Ala-p-nitroanalide (1 μM) (Sigma) and incubated for 2 h. Intensity of digested substrate after incubation was determined by measuring the absorbance at 405 nm on a Fluostar Omega (BMG Labtech, NC, USA).

[4] = test system: TNFα; experiment: LPS induced TNFα in PBMC; type: cell-based; conditions: 1000 nM alone, LPS 1 μg/ml, 24 h
Protocol: PBMC (peripheral blood mononuclear cells) from whole blood were isolated by density gradient using Histopaque and incubated with the desired concentration of inhibitor for 15 minutes. LPS (1 μg/ml) was added and then incubated for 24 hours. The supernatant was collected and TNFα estimated using an eBioscience TNFα ELISA kit.
PBMC from whole blood were isolated by density gradient using Histopaque and incubated with the desired concentration of inhibitor for 15 minutes. LPS (1 μg/m1) was added and then incubated for 24 hours. The supernatant was collected and TNFα estimated using an eBioscience TNFα ELISA kit.

[5] = test system: neutrophil infiltration; experiment: Lipopolysaccharide induced pulmonary neutrophilia in female Wistar rats; type: in vivo
Protocol: After the quarantine period, fasted animals were randomized and divided into groups depending on their body weights. Test compound was prepared as a suspension in a vehicle consisting of 0.5% methylcellulose in which Tween 80 was used as a suspending agent. Compounds or vehicle were administered by oral gavage in a volume of 10 mL/kg. Animals were anaesthetized with ketamine and LPS solution was administered intratracheally 30 minutes after compound administration at a dose of 1 mg/kg. Six hours after LPS instillation, animals were exsanguinated under anaesthesia, and the trachea was cannulated, and lungs were lavaged with 5-ml aliquots of heparinised PBS (1 unit/ml) four times through the tracheal cannula (total volume 20 ml). Bronchioalveolar (BAL) fluid was stored at 2-8° C. until assayed for total cell and differential leukocyte count. BAL fluid was centrifuged (500×g for 10 min) and the resulting cell pellet was resuspended in 0.5 ml of heparinised saline. The total numbers of white blood cells were determined in BAL fluid or blood using a cell counter and were adjusted to 1×10^6 cell/ml. Differential cell count was calculated manually. One hundred microliters of the cell suspension was centrifuged using cytospin 3 to prepare a cell smear. The cell smear was stained with a blood staining solution for differentiation and slides were microscopically observed to identify eosinophils according to their morphological characteristics. The number of each cell type among 300 white blood cells in the cell smear was determined and expressed as a percentage of total cells. The number of eosinophil in BALF was calculated.
The procedure for LPS induced pulmonary neutrophilia in female Wistar rats as described in Example 1 was performed with compound A1 and roflumilast.

[6] = test system: macrophage and neutrophil infiltration; experiment: Acute cigarette smoke induced cell infiltration in male Balb/c mice; type: in vivo; conditions: acute CS, mouse; for ED50: oral
Protocol: Animals were acclimatized for seven days prior to the start of the experiment. Animals were randomly distributed to various groups based on their body weights. On day 1, mice were administered by test compound or vehicle by the oral route and after 30 mins test compound administration animals were placed in a whole body exposure box. The mice were exposed to the mainstream smoke of 6 cigarettes from day 1 to day 4. Exposure to the smoke of each cigarette lasted for 10 min (cigarettes were completely burned in the first two minutes and followed by an air flow with animal ventilator) followed by exposure for the next 20 min with fresh room air. After every second cigarette an additional break of 20 min with exposure to fresh room air was conducted. Control animals were exposed to the room air chamber. From day 1 to day 4 animals were administered test compound by the oral route. On day 5, 24 hours after the last cigarette smoke (CS) exposure. animals were exsanguinated under anaesthesia, and the trachea was cannulated and the lungs were lavaged with 0.5 ml aliquots of heparinised PBS (1 unit/ml) four times through a tracheal cannula (total volume 2 ml). Bronchioalveolar (BAL) collected was stored at 2-8° C. until assayed for total cell and differential leukocyte count. BAL fluid was centrifuged (500×g for 10 min) and the resulting cell pellet was resuspended in 0.5 ml of heparinised saline. The total number of white blood cells was determined in BAL fluid and blood using a blood cell counter and adjusted to 1×10^6 cell/ml. Differential cell count was calculated manually. Forty microliters of the cell suspension was centrifuged using cytospin 3 to prepare a cell smear. The cell smear was stained with a blood staining solution for differentiation and microscopically observed by identifying each cell according to its morphological characteristics. The number of each cell type among 300 white blood cells in the cell smear were determined and expressed as a percentage, and the number of neutrophils and macrophages in each BAL fluid were calculated.
The procedure for acute cigarette smoke induced cell infiltration in male Balb/c mice described in Example 1 was performed with Compound A1 and roflumilast

[7] = test system: macrophage and neutrophil infiltration; experiment: Chronic cigarette smoke induced cell infiltration in male Balb/c mice; type: in vivo; conditions: alone at 1 mg/kg oral; chronic CS, mouse
Protocol: Animals were acclimatized for seven days prior to the start of the experiment. Animals were randomly distributed to various groups based on their body weights. Mice were exposed to the mainstream smoke of 4 cigarettes from day 1 to day 11. Exposure to the smoke of each cigarette lasted for […] (each cigarette was completely burned in the first two minutes, followed by an air flow with animal ventilator) and were exposed for the next 20 min with fresh room air. After every second cigarette an additional break of 20 min with exposure to fresh room air was conducted. Control animals were exposed to the room air chamber. Test compound was administered by the oral route from day 6 to day 11 before 30 mins whole body smoke exposure. On day 12, 24 hours after the last cigarette smoke (CS) exposure animals were exsanguinated under anaesthesia, and the trachea was cannulated and the lungs were lavaged with 0.5 ml aliquots of heparinised PBS (1 unit/nil) four times through tracheal cannula (total volume 2 ml). Bronchioalveolar (BAL) collected was stored at 2-8° C. until assayed for total cell and differential leukocyte count. BAL fluid was centrifuged (500×g for 10 min) and the resulting cell pellet was resuspended in 0.5 ml of heparinised saline. The total number of white blood cells was determined in BAL fluid and blood using a blood cell counter and adjusted to 1×10^6 cell/ml. Differential cell count was calculated manually Forty microliters of the cell suspension was centrifuged using cytospin 3 to prepare a cell smear. The cell smear was stained with a blood staining solution for differentiation and microscopically observed by identifying each cell according to its morphological characteristics. The number of each cell type among 300 white blood cells in the cell smear was determined and expressed as a percentage, and the number of neutrophils and macrophages in each BAL fluid were calculated.

[8] = test system: TNFα; experiment: LPS induced TNFα in MH-S (mouse alveolar macrophage) cells; type: cell-based; conditions: 130 nM alone
Protocol: MH-S represents a mouse alveolar macrophage cell line that secretes copious amounts of TNFα upon induction by LPS. Cells were plated at 150,000 cells per well. 10 nM of Compound A1 (final concentration) was added 15 minutes prior to the addition of roflumilast. LPS (1 μg/ml) was added and then incubated for 4 hours. The supernatant was collected after 20 hours and TNFα was estimated using an ELISA kit.

[9] = 3 mg/kg oral, dose-response study
[10] = combination study, alone at 3 mg/kg

Cc1ccccc1-n1c(Cn2cnc3c(N)ncnc32)nc2cccc(C)c2c1=O [Compound B, 2-((6-amino-9H-purin-9-yl)methyl)-5-methyl-3-o-tolylquinazolin-4(3H)-one]
effect on MMP-9 release [1]: no effect | pIC50 [2]: 6.11 | reduction of elastase release [3]: 10%

C[C@H](Nc1ncnc2[nH]cnc12)c1oc2ccc(F)cc2c(=O)c1-c1cccc(F)c1 [Compound C, (S)-2-(1-(9H-purin-6-ylamino)ethyl)-6-fluoro-3-(3-fluorophenyl)-4H-chromen-4-one]
decrease of TNFα secretion [4]: 20% | percent inhibition of neutrophil infiltration ([5]; 0.1 mg/kg oral, rat BAL fluid 6 h after LPS): 14.15% | percent inhibition of neutrophil infiltration ([5]; 1 mg/kg oral, dose-response study, rat): 57.76% | percent inhibition of neutrophil infiltration ([5]; 3 mg/kg oral, rat): 56.93% | percent inhibition of neutrophil infiltration ([5]; 10 mg/kg oral, rat): 81.55% | ED50 ([5]; Neutrophil, oral, rat LPS pulmonary neutrophilia, read-out: 50% inhibition (ED50) dose, neutrophil infiltration): 1 mg/kg | inhibition of neutrophil infiltration ([5]; combination study, alone at 1 mg/kg, rat): 36.56% | percent inhibition of macrophage infiltration ([6]; 1 mg/kg oral): 34.84% | percent inhibition of neutrophil infiltration ([6]; 1 mg/kg oral): 29.06% | percent inhibition of macrophage infiltration [6, 9]: 42.09% | percent inhibition of neutrophil infiltration [6, 9]: 62.38% | percent inhibition of macrophage infiltration ([6]; 10 mg/kg oral): 61.77% | percent inhibition of neutrophil infiltration ([6]; 10 mg/kg oral): 74.25% | ED50 ([6]; Macrophage, read-out: 50% inhibition (ED50) dose, macrophage infiltration): 4.4 mg/kg | ED50 ([6]; Neutrophil, read-out: dose of 50% inhibition (ED50) of neutrophil infiltration): 2.1 mg/kg | inhibition of macrophage infiltration [6, 10]: 30.01% | inhibition of neutrophil infiltration [6, 10]: 41.47% | inhibition of macrophage infiltration [7]: −13.30% | inhibition of neutrophil infiltration [7]: 4.08%

CCOc1cc([C@@H](CS(C)(=O)=O)N2C(=O)c3cccc(NC(C)=O)c3C2=O)ccc1OC [aprelimilast, reference compound]
decrease in TNFα secretion [8]: ~10%
